Earlier results in patent US12303619B2, “Polymer implants” (Foundry Therapeutics, Inc., priority 2018, dated 2025).

SMILES: CCCCN1CCCCC1C(=O)Nc1c(C)cccc1C (stereo not shown) [bupivacaine]
- pKa: about 8.0
